ChEMBL document CHEMBL1141967, “N-Sulfonyl hydroxamate derivatives as inhibitors of class II fructose-1,6-diphosphate aldolase” (Bioorg Med Chem Lett, 2005)

How the values were obtained:
[1] = target: T1, Fructose-bisphosphate aldolase A (Oryctolagus cuniculus, UniProt P00883); test: Inhibitory activity against class I FBP aldolase from rabbit
T1 sequence (P00883 whole entry): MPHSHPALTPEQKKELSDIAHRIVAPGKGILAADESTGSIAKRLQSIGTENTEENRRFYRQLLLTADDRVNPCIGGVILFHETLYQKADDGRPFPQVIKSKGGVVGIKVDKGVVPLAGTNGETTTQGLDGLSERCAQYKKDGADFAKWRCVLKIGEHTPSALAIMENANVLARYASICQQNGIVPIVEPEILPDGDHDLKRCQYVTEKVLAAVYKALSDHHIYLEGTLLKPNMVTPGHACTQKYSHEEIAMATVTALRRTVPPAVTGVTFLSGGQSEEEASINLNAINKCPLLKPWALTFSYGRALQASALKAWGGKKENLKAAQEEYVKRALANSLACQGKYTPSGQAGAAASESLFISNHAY

[2] = target: T2, Fructose-bisphosphate aldolase class 2 (Escherichia coli K-12, UniProt P0AB71); test: Inhibitory activity against class II FBP aldolase from Escherichia coli
T2 sequence (P0AB71 whole entry): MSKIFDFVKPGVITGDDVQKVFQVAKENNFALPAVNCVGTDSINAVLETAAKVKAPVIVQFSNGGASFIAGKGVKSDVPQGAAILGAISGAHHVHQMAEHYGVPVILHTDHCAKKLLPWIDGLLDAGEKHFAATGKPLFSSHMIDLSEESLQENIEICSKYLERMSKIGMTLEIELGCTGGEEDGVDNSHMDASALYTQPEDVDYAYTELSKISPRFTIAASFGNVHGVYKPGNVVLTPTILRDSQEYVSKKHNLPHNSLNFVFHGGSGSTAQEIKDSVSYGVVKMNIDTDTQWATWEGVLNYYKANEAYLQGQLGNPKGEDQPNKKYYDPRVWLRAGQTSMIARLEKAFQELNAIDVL

| Compound | Ki [1] | Ki [2] |
| --- | --- | --- |
| CS(=O)(=O)NC(=O)COP(=O)(O)O | > 10000 µM | 350 µM |
| O=C(CCP(=O)(O)O)NS(=O)(=O)c1ccccc1 | > 10000 µM | > 10000 µM |
| CS(=O)(=O)NC(=O)CCP(=O)(O)O | > 10000 µM | > 10000 µM |
| O=C(COP(=O)(O)O)NO [PHOSPHOGLYCOLOHYDROXAMATE] | 1 µM | 0.01 µM |
| O=C(CCP(=O)(O)O)NO | > 1000 µM | > 1000 µM |
| O=C(COP(=O)(O)O)NS(=O)(=O)c1ccccc1 | > 10000 µM | 100 µM |
